Molecules are shown by their SMILES. Like-named read-outs stand apart in the source and are kept apart here.

Data set [1] is described as follows: Cytotoxicity in HepG2.117 cells (ATPlite Luminescence Assay). The data set is classed as cell-based. The note with it: human, incubated for 3 days, cell viability, mean value, read-out: TOX-HepG2.117 CC50 (μM, mean value). Here is the method: Cytotoxicity of the compounds was tested using HepG2 or HepG2.117 cells, incubated for 3 days in the presence of compounds. The viability of the cells was assessed using the PERKIN ELMER ATPlite Luminescence Assay System.”

The test system of the next data set is HBV. Briefly: Anti-HBV activity in HepG2.117 cell line (intracellular HBV DNA, real-time PCR). It counts as cell-based. The note with it: Hepatitis B virus, read-out: HBV-AVE-HepG2.117 EC50 (μM, mean value). Here is the method:
The anti HBV activity was measured using the HepG2.117 cell line, a stable, inducibly HBV producing cell line, which replicates HBV in the absence of doxicycline (Tet-off system). The HepG2 cell line is available from ATCC® under number HB-8065. Transfection of the HepG2 cell line can be as described in Sun and Nassal 2006 Journal of Hepatology 45 (2006) 636-645 “Stable HepG2- and Huh7-based human hepatoma cell lines for efficient regulated expression of infectious hepatitis B virus”.
For the antiviral assay, HBV replication was induced, followed by a treatment with serially diluted compound in 96-well plates. After 3 days of treatment, the antiviral activity was determined by quantification of intracellular HBV DNA using real-time PCR and an HBV specific primer set and probe.

Where [2] appears, read: 72 h, HepG2.117 cells, 3 days of treatment, intracellular HBV DNA, mean value.

On to `COc1ccc(CN2CCn3nc4c(c3C(F)(F)C2)CN(C(=O)c2ccc(Cl)c(Cl)c2)[C@H](C)C4)cc1` [Example C1, (3,4-Dichlorophenyl){(3R)-11,11-difluoro-9-[(4-methoxyphenyl)methyl]-3-methyl-1,3,4,7,8,9,10,11-octahydro-2H-pyrido[4′,3′:3,4]pyrazolo[1,5-d][1,4]diazepin-2-yl}methanone], for which the CC50 at 3 days in data set [1] was found to be 15.7 µM. For the same compound, the EC50 in the data set on HBV (setting [2]) stood at 0.274 µM.
The like results for `C[C@@H]1Cc2nn3c(c2CN1C(=O)c1ccc(Cl)c(Cl)c1)C(F)(F)CNCC3` [Example C2, (3,4-Dichlorophenyl)[(3R)-11,11-difluoro-3-methyl-1,3,4,7,8,9,10,11-octahydro-2H-pyrido[4′,3′:3,4]pyrazolo[1,5-d][1,4]diazepin-2-yl]methanone] were, in that order, above 50 µM and 0.088 µM.
For the compound `C[C@@H]1Cc2nn3c(c2CN1C(=O)c1ccc(Cl)c(Cl)c1)C(F)(F)CN(C)CC3` [Example C3, (3,4-Dichlorophenyl)[(3R)-11,11-difluoro-3,9-dimethyl-1,3,4,7,8,9,10,11-octahydro-2H-pyrido[4′,3′:3,4]pyrazolo[1,5-d][1,4]diazepin-2-yl]methanone], the CC50 at 3 days in data set [1] was above 50 µM. Further, the EC50 with HBV (setting [2]) worked out at 0.032 µM.
Consider `C[C@@H]1Cc2nn3c(c2CN1C(=O)c1ccc(Cl)c(Cl)c1)C(F)(F)CN(S(C)(=O)=O)CC3` [Example C4, (3,4-Dichlorophenyl)[(3R)-11,11-difluoro-9-(methanesulfonyl)-3-methyl-1,3,4,7,8,9,10,11-octahydro-2H-pyrido[4′,3′:3,4]pyrazolo[1,5-d][1,4]diazepin-2-yl]methanone], for which the CC50 at 3 days in data set [1] was above 50 µM. In the data set with HBV (setting [2]), the EC50 was found to be 0.052 µM.
Turning to `C[C@@H]1Cc2nn3c(c2CN1C(=O)c1ccc(Cl)c(Cl)c1)C(F)(F)C(O)CCC3` (stereo partly drawn) [Example C6, (3,4-Dichlorophenyl)[(3R)-11,11-difluoro-10-hydroxy-3-methyl-1,3,4,7,8,9,10,11-octahydro-2H-pyrido[4′,3′:3,4]pyrazolo[1,5-a]azepin-2-yl]methanone], the CC50 at 3 days in data set [1] was above 50 µM. Besides, the EC50 in the data set on HBV (setting [2]) is 3.28 µM.
As for `C[C@@H]1Cc2nn3c(c2CN1C(=O)c1ccc(Cl)c(Cl)c1)C(F)(F)C(Oc1ccc(C#N)cc1)CCC3` (stereo partly drawn) [Example C7, 4-{[(3R)-2-(3,4-Dichlorobenzoyl)-11,11-difluoro-3-methyl-1,3,4,7,8,9,10,11-octahydro-2H-pyrido[4′,3′:3,4]pyrazolo[1,5-a]azepin-10-yl]oxy}benzonitrile], the CC50 at 3 days in data set [1] was above 50 µM. Further, in the data set on HBV (HepG2.117, 72 h), the EC50 amounted to 2.38 µM.
Turning to `CC(=O)NCC1CCC(F)(F)c2c3c(nn2C1)CCN(C(=O)c1ccc(Cl)c(Cl)c1)C3` (stereo not drawn) [Example C15, N-{[2-(3,4-dichlorobenzoyl)-11,11-difluoro-1,3,4,7,8,9,10,11-octahydro-2H-pyrido[4′,3′:3,4]-pyrazolo[1,5-a]azepin-8-yl]methyl}acetamide], in data set [1], the CC50 at 3 days is above 50 µM. Besides, the EC50 with HBV (setting [2]) turned out to be 0.221 µM.
Consider `COC(=O)NCC1CCC(F)(F)c2c3c(nn2C1)CCN(C(=O)c1ccc(Cl)c(Cl)c1)C3` (stereo not drawn) [Example C16, Methyl {[2-(3,4-dichlorobenzoyl)-11,11-difluoro-1,3,4,7,8,9,10,11-octahydro-2H-pyrido-[4′,3′:3,4]pyrazolo[1,5-a]azepin-8-yl]methyl}carbamate], for which the CC50 at 3 days in data set [1] was found to be 38.2 µM. In addition, in the data set on HBV (setting [2]), the EC50 came out at 0.177 µM.
As to `O=C(c1ccc(Cl)c(Cl)c1)N1CCc2nn3c(c2C1)C(F)(F)CCC(CNC(=O)C(F)(F)F)C3` (stereo not drawn) [Example C17, N-{[2-(3,4-Dichlorobenzoyl)-11,11-difluoro-1,3,4,7,8,9,10,11-octahydro-2H-pyrido[4′,3′:3,4]-pyrazolo[1,5-a]azepin-8-yl]methyl}-2,2,2-trifluoroacetamide], in data set [1], the CC50 at 3 days was 20 µM. Moreover, in the data set with HBV (HepG2.117, 72 h), the EC50 worked out at 0.326 µM.

For the origin of these results see patent US20220323455A1, “FUSED HETEROCYCLIC DERIVATIVES AS ANTIVIRAL AGENTS” (priority 2019, published 2022).
